We go through four compounds from patent US10155948B2, “Pharmaceutical composition for preventing or treating diabetic complications and screening method for preventive or therapeutic agent for diabetic complications” (KANGWON NATIONAL UNIVERSITY UNIVERSITY-INDUSTRY COOPERATION …, priority 2016, dated 2018).

Assay [1] has as its system HRECs. Put plainly: Visualization of actin filaments (stress fiber formation) in HRECs. Type of assay: cell-based, human. As to conditions: summary statement, conditions not given. Here is the method: (§1) Actin filaments and VE-cadherin were visualized as previously described. For visualization of actin filaments, cells were treated with 10 ng/ml VEGF for 1 hr at 37° C., fixed with 3.7% formaldehyde, and permeabilized with 0.2% Triton X-100. […] For visualization of VE-cadherin, cells were preincubated with the TGase2 inhibitors for 30 min and treated with 10 ng/ml VEGF for 90 min at 37° C. Following fixation and permeabilization, cells were incubated overnight with a monoclonal anti-VE-cadherin antibody (1:200, Santa Cruz Biotechnology) at 4° C. Cells were then probed with an FITC-conjugated goat anti-mouse antibody (1:200, Sigma) and VE-cadherin was visualized using confocal microscopy. Adherens junctions are represented by histograms of VE-cadherin as indicated by dotted lines and were quantitatively analyzed using peak fluorescence intensities of the histograms at the single-cell level for 10 randomly selected cells per experiment.
(§2) (A-C) HRECs were preincubated with 50 μM cystamine (Cys) and 20 μM MDC for 30 min and treated with 10 ng/ml VEGF. Stress fibers and VE-cadherin were stained and visualized by confocal microscopy as described in Research Design and Methods (n=3) ((A) Representative images of stress fibers. Scale Bar, 30 μm. (B) Representative images of VE-cadherin. Scale Bar, 10 μm). Adherens junctions are represented by histograms of VE-cadherin as indicated by dotted lines. (C) Adherens junctions were quantitatively analyzed using the peak fluorescence intensities of the histograms at the single-cell level. The results are expressed as mean±SD from three independent trials. (D) In-vitro endothelial cell monolayer permeability assay. HRECs on inserts of Transwell® Permeable Supports were incubated with 50 μM cystamine and 20 μM MDC for 30 min and treated with 10 ng/mL VEGF for 90 min. The amount of FITC-dextran that diffused to the lower chamber was measured by a microplate spectrofluorometer (n=3) (**p<0.01).
(§3) HRECs were transfected with 100 nM human TGase2-specific siRNA (TGase2 siRNA) or 100 nM control (Ctrl) siRNA. Endothelial cells were treated with 10 ng/ml VEGF and subjected to the confocal microscopic visualization of stress fibers (A) and VE-cadherin (B), as described in Research Design and Methods (n=3). (A) TGase2 siRNA inhibition of VEGF-induced formation of stress fibers. Scale bar, 30 μm. (B) Representative images of VE-cadherin and adherens junctions represented by VE-cadherin histograms. Scale bar, 10 μm. (C) Adherens junctions were quantitatively analyzed using peak fluorescence intensities of the histograms at the single-cell level. Results are expressed as mean±SD from three independent experiments (***p<0.001).

For assay [2], the system named is VE-cadherin. Kind of assay: Visualization of VE-cadherin (adherens junction disruption) in HRECs. Type of assay: cell-based, human. As to conditions: summary statement, conditions not given. Here is the method: as §1, §2, §3
The target in assay [3] is T1, TGase2 (Mus musculus, UniProt P21981).
T1 construct: from tissue; host or cells: retina of streptozotocin-diabetic C57BL/6 mice
T1 sequence (P21981 1-686): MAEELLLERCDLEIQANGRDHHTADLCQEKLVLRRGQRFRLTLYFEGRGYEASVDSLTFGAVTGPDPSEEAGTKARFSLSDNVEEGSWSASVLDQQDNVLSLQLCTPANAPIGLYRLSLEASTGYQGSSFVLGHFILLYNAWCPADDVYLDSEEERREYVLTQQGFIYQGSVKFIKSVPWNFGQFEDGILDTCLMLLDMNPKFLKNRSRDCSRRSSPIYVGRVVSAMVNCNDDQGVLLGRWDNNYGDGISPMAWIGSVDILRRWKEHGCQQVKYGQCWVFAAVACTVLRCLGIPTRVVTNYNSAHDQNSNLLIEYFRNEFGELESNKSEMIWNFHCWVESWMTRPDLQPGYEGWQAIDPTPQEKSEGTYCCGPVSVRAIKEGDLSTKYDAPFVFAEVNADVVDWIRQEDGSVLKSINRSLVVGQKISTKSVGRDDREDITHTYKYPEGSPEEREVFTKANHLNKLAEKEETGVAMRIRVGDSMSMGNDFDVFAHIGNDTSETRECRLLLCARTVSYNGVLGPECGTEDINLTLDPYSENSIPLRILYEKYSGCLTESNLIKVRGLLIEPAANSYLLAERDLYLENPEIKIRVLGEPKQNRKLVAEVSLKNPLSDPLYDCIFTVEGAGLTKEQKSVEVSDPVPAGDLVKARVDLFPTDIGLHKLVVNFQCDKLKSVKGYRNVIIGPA
Kind of assay: In-vivo TGase activity in retina of streptozotocin-diabetic mice. The conditions noted are these: diabetic mice, intravitreal 2 μl: 50 mM cystamine, 20 mM MDC, 1 μM C-peptide, 2 μM Trolox, 500 mM NAC; after 24 hrs; n=8. The procedure: Two weeks after streptozotocin injection, diabetic mice were intravitreally injected with 2 μl of TGase inhibitors (50 mM cystamine or 20 mM MDC), 1 μM C-peptide (American Peptide Company, Sunnyvale, Calif.), ROS scavengers (2 μM Trolox or 500 mM NAC), or 65 μM mouse TG2-specific siRNA (Dharmacon, Lafayette, Colo.) into one eye and an equal volume of PBS or mouse control siRNA (Dharmacon, Lafayette, Colo.) into the contralateral eye. Non-diabetic mice were also intravitreally injected with 2 μl of PBS or mouse control siRNA into the eyes. After 24 hrs for inhibitors or C-peptide or 48 hrs for mouse TGase2 siRNA, mice were subjected to measurement of in-vivo TGase activity and vascular leakage from the retina.
In vivo Tgase transamidating activity was determined in mouse retina using confocal microscopy (FIG. 5A). 24 hrs after intravitreal injection of TGase2 inhibitors and C-peptide or 48 h after the injection of mouse TGase2-specific siRNA, mice were deeply anaesthetized using 2.5% avertin and 48 μl of 100 mM BAPA was injected into the left ventricle. BAPA was allowed to circulate for 10 min and mice were sacrificed by cervical dislocation. Eyes were then enucleated and immediately fixed with 4% paraformaldehyde for 45 min. Retinas were dissected in the Maltese cross-configuration and permeabilized with 0.2% Triton X-100 in PBS for 30 min at RT. After incubation with the blocking solution for 30 min, retinas were treated with FITC-conjugated streptavidin (1:200, v/v) in the blocking solution for 1 hr at RT. The superficial vessels of stained retinas (n=8 per group) were observed using confocal microscopy and fluorescence intensities were analyzed using Fluoview software (FV-300). In-vivo TGase activities were quantitatively determined using fluorescence intensities in the retinas of normal and diabetic mice.
Six-week-old male C57BL/6 mice were obtained from KOATECH (Pyeongtaek, Korea). TGase2^−/− mice (C57BL/6) were prepared by disrupting exons 5 and 6 of TGase2 by homologous recombination, as previously described. Diabetic mice were generated by a single intraperitoneal injection of streptozotocin (150 mg/kg body weight, Sigma) freshly prepared in 100 mM citrate buffer (pH 4.5) as previously described. Mice with non-fasting blood glucose levels greater than 19 mM, polyuria and glucosuria were considered diabetic. Experiments were performed in strict accordance with the guidelines of the Institutional Animal Care and Use Ethics Committee of Kangwon National University.
To validate the in-vitro findings, the present inventors further investigated the role of TGase2 in hyperglycemia-induced vascular leakage in the retina of diabetic mice. For this study, the present inventors designed an in-vivo TGase activity assay using confocal microscopy in mouse retina (FIG. 5A). In this assay, BAPA, which is a TGase2 pseudo substrate, was systemically delivered into the blood circulatory system by injection into the left ventricles of mice, and biotinylated proteins in the retinas were probed with FITC-conjugated streptavidin.
(A) A schematic diagram for determining TGase2 activity in mouse retina. (B,C) Streptozotocin-induced diabetic mice were intravitreally injected with 2 μl cystamine (diabetic+Cys), MDC (diabetic+MDC), C-peptide (diabetic+C-pep), Trolox (diabetic+Trolox) or NAC (diabetic+NAC) into one eye and an equal volume of PBS into the contralateral eye (diabetic). Non-diabetic mice were also intravitreally injected with 2 μl PBS into both eyes (normal). TGase2 activities in retinas were visualized by confocal microscopy and quantitatively determined as described in Research Design and Methods (n=8 per group). (B) Representative TGase activity images in the retinas. […] Scale bar, […]. (C) In-vivo TGase activities were quantified by measuring the fluorescence intensity in retinas (***p<0.001). […]

For assay [4], the system named is HRECs. Kind of assay: Intracellular Ca2+ levels (Fluo4-AM, confocal) in HRECs. In kind it is cell-based, human. As to conditions: 10 ng/ml VEGF, inhibitors 30 min.
Description: Cells on coverslips were co-incubated with 2 μM Fluo4-AM and various inhibitors for 30 min at 37° C. Coverslips were scanned every 10 sec in the presence of 10 ng/ml VEGF using a confocal microscope (FV-300, Olympus Tokyo, Japan). Single-cell fluorescence intensities of peaks were determined for 10 randomly selected cells per trial.
Assay [5] deals with HRECs. Kind of assay: Intracellular ROS generation (H2DCFDA, confocal) in HRECs. Type of assay: cell-based, human. As to conditions: 10 ng/ml VEGF, inhibitors pretreated 30 min.
Description: Intracellular ROS generation was determined using 2′,7′-dichlorodihydrofluorescein diacetate (H2DCFDA, Molecular Probes, Eugene, Oreg.) staining as previously described. Cells were pretreated with inhibitors for 30 min and co-incubated with 10 ng/ml of VEGF and 10 μM H2DCFDA in low-serum media (phenol red-free) for 10 min. Labeled cells were immediately analyzed using confocal microscopy (Fluoview-300, Olympus). Single-cell fluorescence intensities were determined for 10 randomly selected cells per test. Intracellular ROS levels were determined by comparing average fluorescence intensities of treated cells with those of control cells (expressed as multiples thereof). […] Intracellular Ca^2+ and ROS levels were determined by confocal microscopy as described in Research Design and Methods. Results are expressed as mean±SD from three independent trials (***p<0.001).
Assay [6] has as its target T2, TGase2 (Homo sapiens, UniProt P21980).
T2 sequence (P21980 1-687): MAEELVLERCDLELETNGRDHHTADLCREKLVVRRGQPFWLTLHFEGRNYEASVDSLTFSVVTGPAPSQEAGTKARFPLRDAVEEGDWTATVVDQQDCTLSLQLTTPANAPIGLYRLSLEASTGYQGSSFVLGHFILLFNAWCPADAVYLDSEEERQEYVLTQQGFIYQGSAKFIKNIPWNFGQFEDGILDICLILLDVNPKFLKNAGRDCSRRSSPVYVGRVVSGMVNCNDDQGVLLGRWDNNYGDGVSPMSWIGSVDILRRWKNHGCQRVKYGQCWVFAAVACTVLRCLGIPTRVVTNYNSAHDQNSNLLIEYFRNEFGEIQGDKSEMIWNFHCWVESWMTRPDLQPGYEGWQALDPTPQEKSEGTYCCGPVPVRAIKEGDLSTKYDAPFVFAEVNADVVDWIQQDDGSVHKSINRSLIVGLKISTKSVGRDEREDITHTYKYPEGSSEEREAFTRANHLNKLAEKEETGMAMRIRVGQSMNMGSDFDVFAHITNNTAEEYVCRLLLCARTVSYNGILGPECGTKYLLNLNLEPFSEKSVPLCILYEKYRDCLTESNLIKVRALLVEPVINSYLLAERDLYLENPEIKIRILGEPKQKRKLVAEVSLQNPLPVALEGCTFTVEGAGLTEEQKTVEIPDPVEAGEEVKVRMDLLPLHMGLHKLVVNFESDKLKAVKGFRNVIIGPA
Put plainly: In-situ TGase activity by confocal microscopy in VEGF-treated HRECs. As to conditions: 10 ng/ml VEGF 2 hrs, 50 μM cystamine, 20 μM MDC, 5 μM BAPTA-AM, 1 mM NAC, 0.5 μM Trolox, p<0.001. On the set-up: endogenous in cells; host or cells: human retinal endothelial cells (HRECs). In kind it is cell-based. The procedure:
HUVEC isolation was done by our own supply and Human retinal endothelial cells (HRECs) were purchased from the Applied Cell Biology Research Institute (Cell Systems, Kirkland, Wash.). Both respectively were grown on 2% gelatin-coated plates in a M199 medium supplemented with 20% fetal bovine serum (FBS), 3 ng/ml basic fibroblastic growth factor, 5 units/ml heparin, 100 units/ml penicillin, and 100 μg/ml streptomycin. For experiments, cells were incubated for 6 hrs in a low-serum medium supplemented with 1% FBS and antibiotics.
In-situ Tgase transamidating activity was determined via confocal microscopic assay according to a previously known procedure. In brief, cells were incubated with 1 mM 5-(biotinamido)pentylamine (BAPA) for 1 hr at 37° C., fixed with 3.7% formaldehyde in PBS for 30 min, and permeabilized with 0.2% Triton X-100 in PBS for 30 min. After incubation with a blocking solution of 2% BSA in 20 mM Tris (pH 7.6), 138 mM NaCl, and 0.1% Tween 20 for 30 min, cells were treated with Cy3-conjugated streptavidin (1:200, v/v) in the blocking solution for 1 hr. Single-cell fluorescence intensities of stained cells were determined using confocal microscopy for 10 randomly selected cells per test. TGase activities were determined by comparing average fluorescence intensities of treated cells with those of control cells (expressed as multiples thereof).
HRECs were transfected with human TGase2-specific siRNA as described previously. In brief, cells were transfected with various concentrations of human TGase2-siRNA or 100 nM control siRNA (Dharmacon, Lafayette, Colo.) using siLentFect lipid reagent (Bio-Rad Laboratories, Hercules, Calif.) according to the manufacturer's instructions. Six hours after transfection with the indicated concentrations, the medium was replaced with a fresh culture medium and the transfected cells were further incubated for 24 hrs.
A detailed description of FIGS. 1A-1F are given below. […] (A, B) HRECs were incubated with 10 ng/ml VEGF for the indicated times (A) or for 2 hrs (B) in the presence of TGase inhibitors (50 μM cystamine and 20 μM MDC), 5 μM Ca^2+ chelator BAPTA-AM, or ROS scavengers (1 mM NAC or 0.5 μM Trolox). In-situ TGase activity was determined by confocal microscopy as described in Research Design and Methods (A: Time course changes in VEGF-induced transglutaminase activation; and B: Effects of various inhibitors on VEGF-induced transglutaminase activation). (C,D) HRECs were transfected with the indicated concentrations (C) or 100 nM (D) of human TGase2-specific siRNA (TGase2 siRNA) or 100 nM control (Ctrl) siRNA. Endothelial cells were treated with 10 ng/ml VEGF and subjected to confocal microscopic determination of in-situ TGase activity (C: Dose-dependent inhibition of TGase2 expression by TGase2 siRNA, TGase2 expression being analyzed by Western blot; and D: TGase2 siRNA prevention of VEGF-induced transglutaminase activation). FIGS. 1E and 1F show the effects of various inhibitors on the elevation of intracellular Ca^2+ (E) and ROS (F). Intracellular Ca^2+ and ROS levels were determined by confocal microscopy as described in Research Design and Methods. Results are expressed as mean±SD from three independent trials (***p<0.001).

Turning to “C-peptide: 31-amino acid peptide, EAEDLQVGQVELGGGPGAGSLQPLALEGSLQ (SEQ ID NO. 2), co-secreted with insulin by pancreatic β cells (listed as Homo sapiens)”, in assay [1], the “VEGF-induced stress fiber formation” value is listed as “prevented”. The “VEGF-induced VE-cadherin disruption” value in assay [2] is reported as “prevented”. In addition, the “hyperglycemia-induced TGase2 activation in diabetic retina (in-vivo TGase activity)” value in assay [3] is on record as “blocked”.

For the compound `NCCO` [ethanolamine], the “VEGF-induced stress fiber formation” value in assay [1] was “prevented”. Also, the “VEGF-induced VE-cadherin disruption” value in assay [2] was “prevented”.

Regarding `CC(=O)OCOC(=O)CN(CC(=O)OCOC(C)=O)c1ccccc1OCCOc1ccccc1N(CC(=O)OCOC(C)=O)CC(=O)OCOC(C)=O` [BAPTA-AM], in assay [4], the “VEGF-elevated intracellular Ca2+ levels” value is listed as “inhibited”. The “VEGF-induced intracellular ROS generation” value in assay [5] is “significantly inhibited”. Further, in assay [6], the “VEGF-induced TGase activation (in-situ TGase activity)” value is “inhibited”.

Regarding `CC(=O)N[C@@H](CS)C(=O)O` [NAC, N-acetyl cysteine], in assay [6], the “VEGF-induced TGase activation (in-situ TGase activity)” value is on record as “inhibited”.
